Test results taken from PubChem BioAssay AID248 (DTP/NCI, 2004).
Where “and” joins values, the source holds several entries; their conditions need not be identical. Equal entries are not always repeated. Inconclusive results and toxic doses are left out.

System: L1210 leukemia ip in BDF1 mice, survival T/C
Test: NCI In Vivo Anticancer Drug Screen. Data for tumor model L1210 Leukemia (intraperitoneal) in B6D2F1 (BDF1) mice
Settings: endpoint: mean survival time, higher = longer survival
Summary of the method: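 Antitumor effect is assessed in tumor-bearing animals. Survival in the compound arm is compared with a vehicle-dosed control arm and expressed as their quotient.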

[1] = dose: 100.0 mg/kg/injection, schedule: Q04DX003 (ip), vehicle: saline
[2] = dose: 200.0 mg/kg/injection, schedule: Q04DX003 (ip), vehicle: saline
[3] = dose: 400.0 mg/kg/injection, schedule: Q04DX003 (ip), vehicle: saline
[4] = dose: 100.0 mg/kg/injection, schedule: Q01DX009 (ip), vehicle: Klucel (hydroxypropylcellulose) (HPC)
[5] = dose: 200.0 mg/kg/injection, schedule: Q01DX009 (ip), vehicle: Klucel (hydroxypropylcellulose) (HPC)
[6] = dose: 400.0 mg/kg/injection, schedule: Q01DX009 (ip), vehicle: Klucel (hydroxypropylcellulose) (HPC)
[7] = dose: 100.0 mg/kg/injection, schedule: Q04DX003 (ip), vehicle: Klucel (hydroxypropylcellulose) (HPC)
[8] = dose: 200.0 mg/kg/injection, schedule: Q04DX003 (ip), vehicle: Klucel (hydroxypropylcellulose) (HPC)
[9] = dose: 400.0 mg/kg/injection, schedule: Q04DX003 (ip), vehicle: Klucel (hydroxypropylcellulose) (HPC)
[10] = dose: 200.0 mg/kg/injection, schedule: Q04DX003 (ip), vehicle: saline with Tween-80
[11] = dose: 100.0 mg/kg/injection, schedule: Q01DX001 (ip), vehicle: saline
[12] = dose: 200.0 mg/kg/injection, schedule: Q01DX001 (ip), vehicle: saline
[13] = dose: 400.0 mg/kg/injection, schedule: Q01DX001 (ip), vehicle: saline

Compound: CCO/C=N/c1oc(-c2ccccc2)nc1C#N
- T/C (dose: 100.0 mg/kg/injection, schedule: Q04DX002 (ip), vehicle: Klucel (hydroxypropylcellulose) (HPC)): 91 % of control
- T/C (dose: 200.0 mg/kg/injection, schedule: Q04DX002 (ip), vehicle: Klucel (hydroxypropylcellulose) (HPC)): 96 % of control

Compound: Cc1cc([N+](=O)[O-])cc(Cl)n1
- T/C (dose: 100.0 mg/kg/injection, schedule: Q01DX001 (ip), vehicle: Klucel (hydroxypropylcellulose) (HPC)): 97 % of control
- T/C (dose: 200.0 mg/kg/injection, schedule: Q01DX001 (ip), vehicle: Klucel (hydroxypropylcellulose) (HPC)): 102 % of control
- T/C (dose: 400.0 mg/kg/injection, schedule: Q01DX001 (ip), vehicle: Klucel (hydroxypropylcellulose) (HPC)): 100 % of control

Compound: COC(=O)CC(=O)C(Cl)C(=O)OC (centres undefined)
- T/C (dose: 50.0 mg/kg/injection, schedule: Q01DX009 (ip), vehicle: saline): 97 % of control
- T/C (dose: 100.0 mg/kg/injection, schedule: Q01DX009 (ip), vehicle: saline): 108 % of control

Compound: Cc1ccc(NN)c(Br)c1
- T/C [1]: 104 % of control
- T/C [2]: 106 % of control
- T/C [3]: 101 % of control

Compound: CNC(=O)Nc1cc(Cl)c(OC)cc1OC
- T/C [4]: 96 % of control
- T/C [5]: 95 % of control
- T/C [6]: 96 % of control

Compound: COC(=O)c1cc(C)c(Br)c(OC)c1
- T/C [4]: 98 % of control
- T/C [7]: 94 % of control
- T/C [5]: 100 % of control
- T/C [8]: 111 % of control
- T/C [9]: 100 % of control

Compound: CC(=O)OCCn1c2ccccc2c2c(C)c3cnccc3c(C)c21
- T/C (dose: 37.5 mg/kg/injection, schedule: Q04DX003 (ip), vehicle: saline): 115 % of control
- T/C (dose: 150.0 mg/kg/injection, schedule: Q04DX003 (ip), vehicle: saline): 154 % of control
- T/C [10]: 108 % of control
- T/C (dose: 300.0 mg/kg/injection, schedule: Q04DX003 (ip), vehicle: saline with Tween-80): 102 % of control
- T/C (dose: 300.0 mg/kg/injection, schedule: Q04DX003 (ip), vehicle: saline): 290 % of control

Compound: OC/C=C\C1(O)CCCCC1
- T/C (dose: 75.0 mg/kg/injection, schedule: Q01DX001 (ip), vehicle: saline): 98 % of control
- T/C (dose: 150.0 mg/kg/injection, schedule: Q01DX001 (ip), vehicle: saline): 96 % of control

Compound: c1cc(C2CO2)ccc1Oc1ccc(C2CO2)cc1 (centres undefined)
- T/C (dose: 1.0 mg/kg/injection, schedule: Q01DX Z (ip), vehicle: methylcellulose (MC)): 96 % of control
- T/C (dose: 3.3 mg/kg/injection, schedule: Q01DX Z (ip), vehicle: methylcellulose (MC)): 98 % of control
- T/C (dose: 10.0 mg/kg/injection, schedule: Q01DX Z (ip), vehicle: methylcellulose (MC)): 104 % of control
- T/C (dose: 33.0 mg/kg/injection, schedule: Q01DX Z (ip), vehicle: methylcellulose (MC)): 98 % of control
- T/C (dose: 100.0 mg/kg/injection, schedule: Q01DX Z (ip), vehicle: methylcellulose (MC)): 86 % of control

Compound: C/[N+]([O-])=N\Nc1c(Cl)cc(Cl)cc1Cl
- T/C (dose: 50.0 mg/kg/injection, schedule: Q01DX009 (ip), vehicle: saline with Tween-80): 94 % of control
- T/C (dose: 100.0 mg/kg/injection, schedule: Q01DX009 (ip), vehicle: saline with Tween-80): 105 % of control
- T/C (dose: 200.0 mg/kg/injection, schedule: Q01DX009 (ip), vehicle: saline with Tween-80): 102 % of control

Compound: O=C1OC2c3ccccc3C3CC(=O)C2C13 (centres undefined)
- T/C (dose: 50.0 mg/kg/injection, schedule: Q01DX001 (ip), vehicle: saline): 98 % of control
- T/C [11]: 104 % of control
- T/C [12]: 98 % of control
- T/C [13]: 96 % of control

Compound: CCC(/C=N/N=C(N)N)=N\N=C(N)N
- T/C (dose: 15.0 mg/kg/injection, schedule: Q01DX Z (ip), vehicle: saline): 97 % of control
- T/C (dose: 30.0 mg/kg/injection, schedule: Q01DX Z (ip), vehicle: saline): 103 % of control
- T/C (dose: 30.0 mg/kg/injection, schedule: Q01DX Z (oral), vehicle: saline): 102 % of control
- T/C (dose: 60.0 mg/kg/injection, schedule: Q01DX Z (ip), vehicle: saline): 103 % of control and 115 % of control
- T/C (dose: 60.0 mg/kg/injection, schedule: Q01DX Z (oral), vehicle: saline): 101 % of control
- T/C (dose: 120.0 mg/kg/injection, schedule: Q01DX Z (ip), vehicle: saline): 108 % of control
- T/C (dose: 120.0 mg/kg/injection, schedule: Q01DX Z (oral), vehicle: saline): 97 % of control and 106 % of control
- T/C (dose: 240.0 mg/kg/injection, schedule: Q01DX Z (oral), vehicle: saline): 102 % of control and 104 % of control
- T/C (dose: 480.0 mg/kg/injection, schedule: Q01DX Z (oral), vehicle: saline): 111 % of control

Compound: O=C(C[n+]1ccccc1Br)c1ccc2ccccc2c1
- T/C (dose: 9.38 mg/kg/injection, schedule: Q01DX001 (ip), vehicle: other): 104 % of control
- T/C (dose: 18.75 mg/kg/injection, schedule: Q01DX001 (ip), vehicle: other): 103 % of control
- T/C (dose: 37.5 mg/kg/injection, schedule: Q01DX001 (ip), vehicle: other): 103 % of control

Compound: O=C(Nc1ccc(-c2nc3nc[nH]c(=O)c3[nH]2)cc1)c1cccc(S(=O)(=O)F)c1
- T/C (dose: 100.0 mg/kg/injection, schedule: Q01DX001 (ip), vehicle: saline with Tween-80): 96 % of control
- T/C (dose: 200.0 mg/kg/injection, schedule: Q01DX001 (ip), vehicle: saline with Tween-80): 96 % of control
- T/C (dose: 400.0 mg/kg/injection, schedule: Q01DX001 (ip), vehicle: saline with Tween-80): 92 % of control

Compound: Cc1[nH]c(=O)[nH]c(=O)c1CN1CCOCC1
- T/C (dose: 100.0 mg/kg/injection, schedule: Q04DX003 (ip), vehicle: saline with Tween-80): 102 % of control
- T/C [10]: 113 % of control
- T/C (dose: 400.0 mg/kg/injection, schedule: Q04DX003 (ip), vehicle: saline with Tween-80): 100 % of control

Compound: CC1(C)COC(c2ccc3ccccc3c2)OC1
- T/C [7]: 96 % of control
- T/C [8]: 101 % of control
- T/C [9]: 100 % of control

Compound: CN(C)c1nc2c(N)ncnc2n1C1OC(CO)C(O)C1O (centres undefined)
- T/C (dose: 6.25 mg/kg/injection, schedule: Q01DX009 (ip), vehicle: saline): 100 % of control
- T/C (dose: 12.5 mg/kg/injection, schedule: Q01DX005 (ip), vehicle: saline): 95 % of control
- T/C (dose: 12.5 mg/kg/injection, schedule: Q01DX009 (ip), vehicle: saline): 96 % of control
- T/C (dose: 25.0 mg/kg/injection, schedule: Q01DX005 (ip), vehicle: saline): 101 % of control
- T/C (dose: 25.0 mg/kg/injection, schedule: Q01DX009 (ip), vehicle: saline): 110 % of control
- T/C (dose: 50.0 mg/kg/injection, schedule: Q01DX005 (ip), vehicle: saline): 108 % of control

Compound: C[N+](C)(C)CCOC(=O)C1C2CC3OC(=O)C1C3C2 (centres undefined)
- T/C [1]: 98 % of control
- T/C [2]: 102 % of control
- T/C [3]: 96 % of control

Compound: COc1ccc2ccc3ccc(OC)c(OC(C)=O)c3c2c1
- T/C (dose: 100.0 mg/kg/injection, schedule: Q01DX001 (ip), vehicle: steriod suspending solution): 94 % of control
- T/C (dose: 200.0 mg/kg/injection, schedule: Q01DX001 (ip), vehicle: steriod suspending solution): 105 % of control
- T/C (dose: 400.0 mg/kg/injection, schedule: Q01DX001 (ip), vehicle: steriod suspending solution): 108 % of control

Compound: CC(=O)Oc1ccc(OC(C)=O)c2c1C(=O)C=CC2=O
- T/C (dose: 0.78 mg/kg/injection, schedule: Q04DX002 (ip), vehicle: alcohol): 110 % of control
- T/C (dose: 1.56 mg/kg/injection, schedule: Q04DX002 (ip), vehicle: alcohol): 100 % of control
- T/C (dose: 3.12 mg/kg/injection, schedule: Q04DX002 (ip), vehicle: alcohol): 106 % of control
- T/C (dose: 6.25 mg/kg/injection, schedule: Q04DX002 (ip), vehicle: alcohol): 93 % of control
- T/C [11]: 107 % of control

Compound: CN(C)CCCNC(=O)Nc1ccc(Cl)cc1
- T/C (dose: 100.0 mg/kg/injection, schedule: Q04DX002 (ip), vehicle: other): 101 % of control
- T/C (dose: 200.0 mg/kg/injection, schedule: Q04DX002 (ip), vehicle: other): 101 % of control
- T/C (dose: 400.0 mg/kg/injection, schedule: Q04DX002 (ip), vehicle: other): 97 % of control

Compound: O=C(Nc1ccccn1)NC1CCCCC1
- T/C [4]: 98 % of control
- T/C [5]: 105 % of control
- T/C [6]: 98 % of control

Compound: CCC(CC)c1ccc2ccccc2c1
- T/C [11]: 100 % of control
- T/C [12]: 98 % of control
- T/C [13]: 101 % of control
